Like-named read-outs stand apart in the source and are kept apart here. Each block holds one compound with its values, some of them ahead of it.
Legend:
Cal-27 = test: MTT anti-proliferation assay in Cal-27 cells; assay type: cell-based; conditions: in words
PGE2 = PGE2 assay in LPS-stimulated SCC-9 cells; assay type: cell-based; conditions: LC-MS/MS
[1] = Pharmacokinetics after i.v. administration of ATB, blood; assay type: in vivo, C57BL/6 mice; conditions: 500 mg/kg ATB IV, matrine dosage 2.79 mg/kg
[2] = Pharmacokinetics after oral administration of ATB or pure KACs, blood; assay type: in vivo, C57BL/6 mice; conditions: for AUC0-t /Dose / Cmax/Dose: blood
[3] = assay type: in vivo, C57BL/6 mice; conditions: for bioavailability: C57BL/6, mouse, whole blood, ip, 500 mg/kg; for AUC0-t /Dose / Cmax/Dose: blood
[4] = Saliva levels after intraperitoneal administration of ATB; assay type: in vivo, C57BL/6 mice; conditions: for detection in mouse saliva: i.p. 500 mg/kg ATB q.d., 7 consecutive days
Stability in saliva = assay type: in vitro ADME
[5] = tested on: salivary gland adenoid cystic carcinoma cells (ACC-M); conditions: in vitro; cited from earlier work
[6] = 5 mg/kg KAC Oral (pure compound), matrine dosage 5.00 mg/kg
[7] = 100 mg/kg ATB Oral, matrine dosage 0.56 mg/kg
[8] = 500 mg/kg ATB Oral, matrine dosage 2.79 mg/kg
[9] = 4000 mg/kg ATB Oral, matrine dosage 22.32 mg/kg
[10] = 500 mg/kg ATB IP Day 1, matrine dosage 2.79 mg/kg
[11] = 500 mg/kg ATB IP Day 7, matrine dosage 2.79 mg/kg
[12] = saliva, 500 mg/kg ATB IP Day 7, matrine dosage 2.79 mg/kg

SMILES: O=C1CCC[C@@H]2[C@H]3CCCN4CCC[C@@H](CN12)[C@@H]34 [Matrine, matrine]
- inhibition effect against Cal-27 cells (Cal-27): moderate inhibition effect
- inhibition of PGE2 production (PGE2; 50 μM): significant inhibition
- AUC0-t /Dose [1]: 1830.0 ± 1241.2 (hr*ng/mL)/(mg/kg)
- Cmax/Dose [1]: 1408.3 ± 835.8 (ng/mL)/(mg/kg)
- AUC0-t /Dose [2, 6]: 46.9 ± 13.0 (hr*ng/mL)/(mg/kg)
- Cmax/Dose [2, 6]: 22.0 ± 7.4 (ng/mL)/(mg/kg)
- AUC0-t /Dose [2, 7]: 58.5 ± 32.7 (hr*ng/mL)/(mg/kg)
- Cmax/Dose [2, 7]: 25.9 ± 20.5 (ng/mL)/(mg/kg)
- AUC0-t /Dose [2, 8]: 43.1 ± 21.3 (hr*ng/mL)/(mg/kg)
- Cmax/Dose [2, 8]: 19.3 ± 10.2 (ng/mL)/(mg/kg)
- AUC0-t /Dose [2, 9]: 164.1 ± 60.0 (hr*ng/mL)/(mg/kg)
- Cmax/Dose [2, 9]: 31.8 ± 10.6 (ng/mL)/(mg/kg)
- increase of dose-normalized AUC ([2]; oral ATB, from 500 mg/kg to 4000 mg/kg): ~ 400%
- bioavailability [3]: 28.9 ± 11%
- AUC0-t /Dose [3, 10]: 528.7 ± 200.9 (hr*ng/mL)/(mg/kg)
- Cmax/Dose [3, 10]: 292.4 ± 147.8 (ng/mL)/(mg/kg)
- AUC0-t /Dose [3, 11]: 592.0 ± 434.7 (hr*ng/mL)/(mg/kg)
- Cmax/Dose [3, 11]: 197.8 ± 144.1 (ng/mL)/(mg/kg)
- accumulation in the body after multiple-dose administration ([3]; in words, Fig 5): no accumulation
- AUC(0-t) ([4]; C57BL/6, mouse, saliva, ip, 500 mg/kg): 2680 ± 1660 ng·h/mL
- detection in mouse saliva [4]: detected
- AUC0-t /Dose [4, 12]: 952.8 ± 594.4 (hr*ng/mL)/(mg/kg)
- Cmax/Dose [4, 12]: 1533.9 ± 823.5 (ng/mL)/(mg/kg)
- stability in saliva (Stability in saliva; room temperature): 4 h
- stability in saliva (Stability in saliva; −20 °C): 170 h
- effect on adhesion and invasion properties of ACC-M cells [5]: inhibit

- bioavailability [3]: 2.8 ± 2.1%
- detection in mouse saliva [4]: no Frax or Maac detected
SMILES: CC1=C2C(=O)O[C@@H](c3ccoc3)[C@]2(C)CCC1 [Fraxinellone, fraxinellone]
- inhibition of PGE2 production (PGE2; 25 μM): significant inhibition

- bioavailability [3]: 4.8 ± 4.2%
- detection in mouse saliva [4]: no Frax or Maac detected
SMILES: Oc1ccc2c(c1)OCC1c3cc4c(cc3OC21)OCO4 (stereo not shown) [Maackiain, maackiain]

From PMC10607708 (Journal of natural products, 2021)
